The values that follow come from patent publication US6316472A, “Heterosubstituted pyridine derivatives as PDE 4 inhibitors” (Merck Frosst Canada & Co., priority 2000, dated 2001).

For this test, the target named is T1, GST-Met 248 PDE 4a (Homo sapiens, UniProt P27815).
T1 construct: human recombinant phosphodiesterase IVa (met-248); made in house; host or cells: baculovirus/Sf-9 insect cells
The test is described as follows: SPA based PDE Activity Assay (hydrolysis of cAMP to AMP). Type of test: biochemical. The conditions noted are these: 100 nM cAMP; purified GST fusion protein of human recombinant phosphodiesterase IVa (met-248), baculovirus/Sf-9; 30° C., 10 min. The procedure: SPA based PDE Activity Assay Protocol
Compounds which inhibit the hydrolysis of cAMP to AMP by the type-IV cAMP-specific phosphodiesterases were screened in 96-well plate format as follows:
In a 96 well-plate at 30° C. was added the test compound (dissolved in 2 μl DMSO), […] of substrate buffer containing [2,8-^3 H] adenosine 3',5'-cyclic phosphate (cAMP, 100 nM to 50 μM), 10 mM MgCl2, 1 mM EDTA, 50 mM Tris, pH 7.5. The reaction was initiated by the addition of […] of human recombinant PDE-IV (the amount was controlled so that ~10% product was formed in 10 min.). The reaction was stopped after 10 min. by the addition of 1 mg of PDE-SPA beads (Amersham). The product AMP generated was quantified on a Microbeta 96-well plate counter. The signal in the absence of enzyme was defined as the background. 100% activity was defined as the signal detected in the presence of enzyme and DMSO with the background subtracted. Percentage of inhibition was calculated accordingly. IC50 value was approximated with a non-linear regression fit using the standard 4-parameter/multiple binding sites equation from a ten point titration.
IC50 values shown in Table 7 were determined with 100 nM cAMP using the purified GST fusion protein of the human recombinant phosphodiesterase IVa (met-248) produced from a baculovirus/Sf-9 expression system.

Structures are written as SMILES.

T1 sequence (P27815 248-886 limits assumed): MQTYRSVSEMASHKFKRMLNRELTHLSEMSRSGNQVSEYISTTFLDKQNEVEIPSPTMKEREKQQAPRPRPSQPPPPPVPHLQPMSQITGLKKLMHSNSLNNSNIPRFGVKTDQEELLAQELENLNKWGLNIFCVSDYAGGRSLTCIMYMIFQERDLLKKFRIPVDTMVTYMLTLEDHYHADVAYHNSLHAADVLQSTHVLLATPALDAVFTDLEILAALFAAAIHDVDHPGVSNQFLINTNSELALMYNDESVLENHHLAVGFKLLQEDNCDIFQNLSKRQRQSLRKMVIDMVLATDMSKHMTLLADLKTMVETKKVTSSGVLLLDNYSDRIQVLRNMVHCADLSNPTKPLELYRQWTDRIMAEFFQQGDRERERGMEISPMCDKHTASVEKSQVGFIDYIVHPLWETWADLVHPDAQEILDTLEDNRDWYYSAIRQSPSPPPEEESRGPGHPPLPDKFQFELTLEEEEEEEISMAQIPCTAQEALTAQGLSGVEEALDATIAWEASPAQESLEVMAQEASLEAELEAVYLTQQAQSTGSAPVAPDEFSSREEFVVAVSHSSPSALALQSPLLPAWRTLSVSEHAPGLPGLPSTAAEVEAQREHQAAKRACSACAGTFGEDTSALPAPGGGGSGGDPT

For orientation: IC50 means the concentration that gives 50% inhibition. On to `NS(=O)(=O)c1cccc(Sc2ccc(C(Cc3ccncc3)c3ccc(OC(F)F)c(OC(F)F)c3)cn2)c1` (centres unmarked) [Example 1, 4-{2-[3,4-Bis(difluoromethoxy)phenyl]-2-{6-[3-(aminosulfonyl)benzenethiol]3-pyridyl}ethyl}pyridine], for which the IC50 stood at 5.45 nM.
For the compound `O=[N+]([O-])c1ccc(S(=O)(=O)c2ccc(C(Cc3cc[n+]([O-])cc3)c3ccc(OC(F)F)c(OC(F)F)c3)cn2)cc1` (centres unmarked) [Example 4, 4-{2-[3,4-Bis(difluoromethoxy)phenyl]-2-[6-(4-nitrobenzenesulfonyl)3-pyridyl]ethyl}pyridine-N-oxide], the IC50 was 21.2 nM.
